Assays:
C57BL/6J mice [1] = experiment: Intra peritoneal glucose tolerance test (IPGTT); assay type: in vivo; conditions: 30 mg/kg oral gavage 30 min before 2g/kg glucose intra peritoneally, overnight fasted male C57BL/6J mice, incremental AUC of glucose excursion vs vehicle; for inhibition in vivo at 30 mg/kg: Mus musculus, 2 h, read-out: % reduction IPGTT at 30mg/kg
Experimental: (§1) 8-10 week old male C57BL/6J mice (Harlan) were maintained on regular chow diet from Harlan (2018 Teklad Global). On the day before the experiment mice were fasted overnight, then randomized into groups (n=10-15) to receive the tested GPR120 agonist at doses ranging from 100mg/kg or the vehicle (1% CMC, 2% TWEEN 80). Compounds were delivered orally via gavage at 10mL/kg. Blood glucose levels were measured by glucometer (Ascensia Elite XL, Bayer) at time -30 minutes before administration of compound. Blood glucose was measured again after 30 minutes (at time 0), and then the mice were dosed intra peritoneally with 2g/kg glucose at 10mL/kg. Blood glucose measurements were taken 20, 40, 60, 90 and 120 minutes after glucose administration, by glucometer (Ascensia Elite XL, Bayer).
(§2) Glucose levels were plotted against time, and the incremental area under the curve (AUC) of the glucose excursion was determined from time 0 using Graphpad Prism 5.01. Outliers were excluded using Tukey's box plot outlier test, and statistical significance of differences in AUC of compound treatment compared to vehicle was determined by non-parametric Kruskal-Wallis test with Dunn's post test.
The compounds were tested at 30 mg/kg and the levels of blood glucose were determined in the presence and absence of the tested compounds. The percentage of glucose reduction is reported. The tested compounds were selected as Examples from the exemplified compounds. […]

human GPR120 = target: T1, human GPR120 (Homo sapiens, UniProt Q5NUL3); experiment: Intracellular Ca2+ assay in human GPR120 stable cell line (FLIPR Calcium 4 dye, Flexstation); assay type: cell-based; conditions: HEK293 cells co-expressing Gqi5; for activity at 5 µM: HEK293, % activity at 5 µM compared to the maximal activity of GW9508 at 6.7 µM (=100%), read-out: %Activity (GW9508 Reference Compound); for activity at 2.5 µM: HEK293, % activity at 2.5 µM compared to the maximal activity of the compound of Example 25 at 2.5 µM (=100%), read-out: % Activity (Ex. 25 Reference Compound)
T1 construct: host or cells: HEK293 cells co-expressing Gqi5
T1 sequence (Q5NUL3 1-361): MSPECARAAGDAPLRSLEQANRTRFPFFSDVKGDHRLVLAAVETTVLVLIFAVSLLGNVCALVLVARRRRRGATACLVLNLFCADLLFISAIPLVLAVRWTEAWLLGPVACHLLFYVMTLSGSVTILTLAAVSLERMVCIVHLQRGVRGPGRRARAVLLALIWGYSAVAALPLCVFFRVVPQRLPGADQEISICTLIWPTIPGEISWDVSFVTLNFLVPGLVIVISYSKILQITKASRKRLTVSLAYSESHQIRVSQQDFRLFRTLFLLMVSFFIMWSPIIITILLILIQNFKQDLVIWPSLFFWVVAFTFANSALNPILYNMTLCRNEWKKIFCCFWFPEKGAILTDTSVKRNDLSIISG

C57BL/6J mice [2] = experiment: Oral glucose tolerance test; assay type: in vivo; conditions: 6 h fasted male C57BL/6J mice, incremental AUC vs vehicle; for % reduction AUC glucose excursion at 100mg/kg: 100 mg/kg oral gavage 30 min before 3g/kg oral glucose; for % reduction AUC glucose excursion: Sitagliptin at 1mg/kg, 3g/kg oral glucose
Experimental: as §1, with “day of” for “day before”, “fasted for 6 hours,” for “fasted overnight,”, “dosed orally” for “dosed intra peritoneally”, “with 3g/kg” for “with 2g/kg”
as §2
Tables 2 and 3 below show the mean percentage inhibition of the glucose excursion for the fifteen animals tested in each group. The compounds were tested at 100 mg/kg and the levels of blood glucose were determined in the presence and absence of the tested compounds. The percentage of glucose reduction is reported. The tested compounds were selected as examples from the exemplified compounds. […]

Row | Molecule | inhibition in vivo at 30 mg/kg (C57BL/6J mice [1]) [%] | activity at 2.5 µM (human GPR120) [%] | further results
1 | 3-(4-((5-chloro-2,2-dimethyl-2,3-dihydrobenzofuran-7-yl)methoxy)-3-fluorophenyl)-2-methylpropanoic acid [Example 10] | – | – | % reduction IPGTT at 30mg/kg (C57BL/6J mice [1]): 30.7%; %Activity (GW9508 Reference Compound) (human GPR120; % activity at 5 µM compared to the maximal activity of GW9508 at 6.7 µM (=100%)): 106.7955%; % reduction AUC glucose excursion at 100mg/kg (C57BL/6J mice [2]; Table 2): 58.1%
2 | CC1(C)Cc2cc(Cl)cc(COc3c(F)cc(C4CC4C(=O)O)cc3F)c2O1 (racemic) [Example 35, 2-(4-((5-chloro-2,2-dimethyl-2,3-dihydrobenzofuran-7-yl)methoxy)-3,5-difluorophenyl)cyclopropanecarboxylic acid] | – | – | activity at 5 µM (human GPR120): 60.1%; % reduction AUC glucose excursion at 100mg/kg (C57BL/6J mice [2]; Table 3): 27.7%
3 | CC(Cc1ccc(OCc2cc(Cl)cc3c2OC(C)(C)C3)c(C(F)(F)F)c1)C(=O)O (stereo not shown) [Example 9, 3-(4-((5-chloro-2,2-dimethyl-2,3-dihydrobenzofuran-7-yl)methoxy)-3-(trifluoromethyl)phenyl)-2-methylpropanoic acid] | 19.8 | – | activity at 5 µM (human GPR120): 113%
4 | CC(Cc1ccc(OCc2cc(Cl)cc3c2OC(C)(C)C3)cc1)C(=O)O (stereo not shown) [Example 13] | – | – | % reduction AUC glucose excursion at 100mg/kg (C57BL/6J mice [2]; Table 2): 61.9%
5 | CC(Cc1ccc(OCc2cc(F)cc3c2OC(C)(C)C3)cc1)C(=O)O (stereo not shown) [Example 16, 3-(4-((5-fluoro-2,2-dimethyl-2,3-dihydrobenzofuran-7-yl)methoxy)phenyl)-2-methylpropanoic acid] | 19.4 | – | activity at 5 µM (human GPR120): 111%; % reduction AUC glucose excursion at 100mg/kg (C57BL/6J mice [2]; Table 3): 52.4%
6 | CC1(C)Cc2cc(Cl)cc(COc3ccc4c(c3)CCC4CC(=O)O)c2O1 (stereo not shown) [Example 36, 2-(5-((5-chloro-2,2-dimethyl-2,3-dihydrobenzofuran-7-yl)methoxy)-2,3-dihydro-1H-inden-1-yl)acetic acid] | – | – | activity at 5 µM (human GPR120): 123%; % reduction AUC glucose excursion at 100mg/kg (C57BL/6J mice [2]; Table 3): 33.6%
7 | COc1cc(OCc2cc(F)cc3c2OC(C)(C)C3)ccc1CCC(=O)O [Example 50, 3-(4-((5-fluoro-2,2-dimethyl-2,3-dihydrobenzofuran-7-yl)methoxy)-2-methoxyphenyl)propanoic acid] | 26.2 | 130 | –
8 | C[C@H](Cc1ccc(OCc2cc(F)cc3c2OC(C)(C)C3)cc1)C(=O)O [Example 65, (R)-3-(4-((5-fluoro-2,2-dimethyl-2,3-dihydrobenzofuran-7-yl)methoxy)phenyl)-2-methylpropanoic acid] | 22.2 | 141 | –
9 | CC(Cc1ccc(OCc2cc(Cl)cc3c2OC(C)(C)C3=O)c(F)c1)C(=O)O (stereo not shown) [Example 77, 3-(4-((5-chloro-2,2-dimethyl-3-oxo-2,3-dihydrobenzofuran-7-yl)methoxy)-3-fluorophenyl)-2-methylpropanoic acid] | 10.4 | 110 | –
10 | CCc1cc(OCc2cc(F)cc3c2OC(C)(C)C3)ccc1CCC(=O)O [Example 134, 3-(2-ethyl-4-((5-fluoro-2,2-dimethyl-2,3-dihydrobenzofuran-7-yl)methoxy)phenyl)propanoic acid] | 30.2 | 151 | –
11 | C[C@H](Cc1ccc(OCc2cc(Cl)cc3c2OC(C)(C)C3)c(F)c1)C(=O)O [Example 141, (R)-3-(4-((5-chloro-2,2-dimethyl-2,3-dihydrobenzofuran-7-yl)methoxy)-3-fluorophenyl)-2-methylpropanoic acid] | 30.6 | 143 | –
12 | CC1(C)Cc2cc(F)cc(COc3ccc4c(c3)CC[C@@H]4CC(=O)O)c2O1 [Example 178, (R)-2-(5-((5-fluoro-2,2-dimethyl-2,3-dihydrobenzofuran-7-yl)methoxy)-2,3-dihydro-1H-inden-1-yl)acetic acid] | 16.3 | 106 | –
13 | Cc1c(CCC(=O)O)ccc(OCc2cc(F)cc3c2OC(C)(C)C3)c1C [Example 208, 3-(4-((5-fluoro-2,2-dimethyl-2,3-dihydrobenzofuran-7-yl)methoxy)-2,3-dimethylphenyl)propanoic acid] | 41.7 | 147 | –
14 | Cc1c(CCC(=O)O)ccc(OCc2cc(Cl)cc3c2OC(C)(C)C3)c1C [Example 209, 3-(4-((5-chloro-2,2-dimethyl-2,3-dihydrobenzofuran-7-yl)methoxy)-2,3-dimethylphenyl)propanoic acid] | 43.6 | 142 | –
15 | N[C@@H](CC(=O)N1CCn2c(nnc2C(F)(F)F)C1)Cc1cc(F)c(F)cc1F [Sitagliptin, sitagliptin, reference compound] | – | – | % reduction AUC glucose excursion (C57BL/6J mice [2]; Table 2): 58.6%; % reduction AUC glucose excursion (C57BL/6J mice [2]; Table 3): 48.6%

From patent EP2582674B1 (Cymabay Therapeutics, Inc., priority 2010, dated 2011)
